Laboratory results published in patent US5624952A, “[(Benzodioxan, benzofuran or benzopyran) alkylamino] alkyl substituted guanidines” (Janssen Pharmaceutica N.V., priority 1993, dated 1997).
Counter-ions that a name gives are not always drawn.

System: basilar arteries of pigs
Assay: Constriction of isolated basilar artery segments of pigs in organ baths (serotonin-like response)
Details: Sus scrofa; pig basilar artery segments, 37° C., Krebs-Henseleit; relative to serotonin 3×10^-7 M; estimated from three different preparations; read-out: ED50 (molar concentration at which a test compound causes 50% of the constrictive response obtained with serotonin)
Description: Segments of basilar aeries taken from pigs (anaesthetised with sodium pentobarbital) were mounted for recording of isometric tension in organ baths. The preparations were bathed in Krebs--Henseleit solution. The solution was kept at 37° C. and gassed with a mixture of 95% O2 -5% CO2. The Preparations were stretched until a stable basal tension of 2 grams was obtained.
The preparations were made to constrict with serotonin (3×10^-7 M). The response to the addition of serotonin was measured and subsequently the serotonin was washed away.
This Procedure was repeated until stable responses were obtained.
Subsequently the test compound was administered to the organ bath and the constriction of the Preparation was measured. This constrictive response is expressed as a Percentage of the response to serotonin as measured Previously.
The ED50 -value (molar concentration) is defined as the concentration at which a test compound causes 50% of the constrictive response obtained with serotonin. Said
ED50 -values are estimated from experiments on three different preparations.

Structure (SMILES)	EC50 [nM]
Brc1ccc2c(c1)CCC(CNCCCNC1=NCCCN1)O2 (racemic) [Compound 56, (±)-N-[(6-bromo-3,4-dihydro-2H-1-benzopyran-2-yl)methyl]-N'-(1,4,5,6-tetrahydro-2-pyrimidinyl)-1,3-propanediamine ethanedioate(1:2)]	187
c1ccc2c(c1)CCC(CNCCCNC1=NCCCN1)O2 (racemic) [Compound 95, (±)-N-[(3,4-dihydro-2H-1-benzopyran-2-yl)methyl]-N'-(1,4,5,6-tetrahydro-2-pyrimidinyl)-1,3-propanediamine dihydrochloride]	81.7
Fc1ccc2c(c1)CCC(CNCCCNc1ncccn1)O2 (centres unmarked) [Compound 3]	146
c1cnc(NCCCNC[C@@H]2CCc3ccccc3O2)nc1 [Compound 5]	515
Fc1ccc2c(c1)CC[C@H](CNCCCNc1ncccn1)O2 [Compound 13]	42.2
CCc1ccc2c(c1)OC(CNCCCCNc1ncccn1)CC2 (centres unmarked) [Compound 18]	49
Fc1ccc2c(c1)CC[C@H](CNCCNc1ncccn1)O2 [Compound 46, (-)-(R)-N-[(6-fluoro-3,4-dihydro-2H-1-benzopyran-2yl)methyl]-N'-(2-pyrimidinyl)-1,2-ethanediamine]	1000
c1cnc(NCCCCNCC2CCc3ccccc3O2)nc1 (centres unmarked) [Compound 48]	306
c1ccc2c(c1)CCC(CNCCNC1=NCCCN1)O2 (centres unmarked) [Compound 57]	542
c1ccc2c(c1)CC[C@H](CNCCCNC1=NCCCN1)O2 [Compound 62, (-)-(R)-N-[(3,4-dihydro-2H-1-benzopyran-2-yl)methyl]-N'-(1,4,5,6-tetrahydro-2-pyrimidinyl)-1,3-propanediamine dihydrochloride hemihydrate]	31.7
Fc1ccc2c(c1)CCC(CNCCCNC1=NCCCN1)O2 (centres unmarked) [Compound 63]	121
c1ccc2c(c1)OCC(CNCCCNC1=NCCCN1)O2 (centres unmarked) [Compound 64]	89.7
c1ccc2c(c1)CC[C@@H](CNCCCNC1=NCCCN1)O2 [Compound 65]	221
c1ccc2c(c1)CC(CNCCCNC1=NCCCN1)O2 (centres unmarked) [Compound 66]	656
Cc1ccc2c(c1)OC(CNCCCNC1=NCCCN1)CC2 (centres unmarked) [Compound 67]	17.7
Fc1ccc2c(c1)CCC(CNCCCCCCNC1=NCCCN1)O2 (centres unmarked) [Compound 68]	33.3
Fc1ccc2c(c1)CC[C@H](CNCCCNC1=NCCCN1)O2 [Compound 70]	6.37
Fc1ccc2c(c1)OC(CNCCCNC1=NCCCN1)CC2 (centres unmarked) [Compound 72]	23.4
CCc1ccc2c(c1)OC(CNCCCNC1=NCCCN1)CC2 (centres unmarked) [Compound 73]	3.46
COc1cccc2c1OC(CNCCCNC1=NCCCN1)CC2 (centres unmarked) [Compound 76]	9.19
COc1ccc2c(c1)OC(CNCCCNC1=NCCCN1)CC2 (centres unmarked) [Compound 78]	35.4
CCc1ccc2c(c1)OC(CNCCCCCNC1=NCCCN1)CC2 (centres unmarked) [Compound 82]	17.6
Cc1cccc2c1OC(CNCCCNC1=NCCCN1)CC2 (centres unmarked) [Compound 84]	13.3
CC(C)c1ccc2c(c1)OC(CNCCCNC1=NCCCN1)CC2 (centres unmarked) [Compound 86]	41.6
CCCCc1ccc2c(c1)OC(CNCCCNC1=NCCCN1)CC2 (centres unmarked) [Compound 87]	88.7
CCCc1ccc2c(c1)OC(CNCCCNC1=NCCCN1)CC2 (centres unmarked) [Compound 88]	7.02
CC(C)(C)c1ccc2c(c1)OC(CNCCCNC1=NCCCN1)CC2 (centres unmarked) [Compound 89]	79.4

Continued, values first:

EC50 [nM]	Structure (SMILES)
46.9	CC(C)NC(=N)NCCCNCC1CCc2ccccc2O1 (racemic) [Compound 150, (±)-N-[3-[[(3,4-dihydro-2H-1-benzopyran-2-yl)methyl]amino]propyl]-N'-(1-methylethyl)-guanidine dihydrochloride]
97.6	c1ccc2c(c1)CCC(CNCCCCNC1=NCCCN1)O2 (centres unmarked) [Compound 97]
34.2	c1ccc2c(c1)CCC(CNCCCCCNC1=NCCCN1)O2 (centres unmarked) [Compound 98]
42.2	c1ccc2c(c1)CC[C@H](CNCCCCNC1=NCCCN1)O2 [Compound 99]
39	Fc1ccc2c(c1)CCC(CNCCCNC1=NCCN1)O2 (centres unmarked) [Compound 106]
16.7	c1ccc2c(c1)CCC(CNCCCNC1=NCCCCN1)O2 (centres unmarked) [Compound 111]
16.3	N#Cc1ccnc(NCCCNCC2CCc3ccccc3O2)n1 (centres unmarked) [Compound 113]
95.6	NC(=O)c1ccnc(NCCCNCC2CCc3ccccc3O2)n1 (centres unmarked) [Compound 114]
45.1	c1ccc2c(c1)CCC(CNCCCNc1nccnn1)O2 (centres unmarked) [Compound 115]
68.2	CCc1ccc2c(c1)OC(CNCCCNC1=NCCCCN1)CC2 (centres unmarked) [Compound 116]
444	c1ccc2c(c1)CCC(CNCCNC1=NCCN1)O2 (centres unmarked) [Compound 129]
33.6	c1ccc2c(c1)CCC(CNCCCNC1=NCCN1)O2 (centres unmarked) [Compound 130]
52.7	CCc1ccc2c(c1)OC(CNCCCNC1=NCCN1)CC2 (centres unmarked) [Compound 133]
810	c1ccc2c(c1)CCC(CN1CCC(NC3=NCCCN3)CC1)O2 (centres unmarked) [Compound 136]
150	c1ccc2c(c1)CC[C@H](CN1CCC(NC3=NCCCN3)CC1)O2 [Compound 139]
495	CCNC(=N)NCCNCC1CCc2ccccc2O1 (centres unmarked) [Compound 148]
99.2	CCCNC(=N)NCCCNCC1CCc2ccccc2O1 (centres unmarked) [Compound 149]
27.1	CN(C)C(=N)NCCCNCC1CCc2ccccc2O1 (centres unmarked) [Compound 151]
56	Cc1ccc2c(c1)OC(CNCCCNC(=N)N(C)C)CC2 (centres unmarked) [Compound 152]
21.8	CCc1ccc2c(c1)OC(CNCCCNC(=N)N(C)C)CC2 (centres unmarked) [Compound 153]
